From patent US20190064177A1, “INCORPORATING COMPETITIVE BINDING INFORMATION INTO MOLECULAR ARRAY ANALYSIS TO GENERATE FUNCTION NETWORKS OF INTERACTIONS” (ARIZONA BOARD OF REGENTS ON BEHALF OF ARIZONA STATE …, priority 2017, published 2019)

Legend:
diaphorase [1] = assay: fluorescently labeled diaphorase binding to peptide array with or without excess FAD; conditions: for 1 microM FAD (array fluorescence of bound diaphorase) / 1 micro no FAD (array fluorescence of bound diaphorase): 1 micromolar labeled diaphorase; for 1 microM FAD (array fluorescence of bound diaphorase) / 10 microM FAD (array fluorescence of bound diaphorase): excess FAD present; for 1 microM FAD (array fluorescence of bound diaphorase) / 1 micro no FAD (array fluorescence of bound diaphorase) / 10 microM FAD (array fluorescence of bound diaphorase) / 10 microM no FAD (array fluorescence of bound diaphorase): 65535 is detector saturation; for 10 microM FAD (array fluorescence of bound diaphorase) / 10 microM no FAD (array fluorescence of bound diaphorase): 10 micromolar labeled diaphorase; for 1 microM noFAD/FAD / 10 microM noFAD/FAD: ratio of binding without FAD to binding with FAD; for 1 microM noFAD/FAD / Meas. ratio: 1 micromolar diaphorase; for 10 microM noFAD/FAD: 10 micromolar diaphorase; for Meas. ratio: ratio without/with FAD calculated from measured binding values
Procedure, shortened: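 Fluorescently labeled diaphorase, at 1 and 10 micromolar, bound to an array of about 126,000 peptides (16 amino acids; C, I, M, T omitted; GSG linker), with or without excess FAD. Fluorescence per feature scanned; 65535 marks detector saturation.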

Diaphorase [2] = assay: peptide array, 1 uM labeled diaphorase, with FAD
Diaphorase [3] = assay: peptide array, 1 uM labeled diaphorase, no FAD
Diaphorase [4] = assay: peptide array, 10 uM diaphorase, binding without FAD / with FAD
Diaphorase [5] = assay: peptide array, 1 uM diaphorase, binding without FAD / with FAD
Diaphorase [6] = assay: peptide array, 10 uM labeled diaphorase, with FAD
Diaphorase [7] = assay: peptide array, 10 uM labeled diaphorase, no FAD

Molecule | 1 microM FAD (array fluorescence of bound diaphorase) (diaphorase [1]) | 1 micro no FAD (array fluorescence of bound diaphorase) (diaphorase [1]) | 10 microM FAD (array fluorescence of bound diaphorase) (diaphorase [1]) | 10 microM no FAD (array fluorescence of bound diaphorase) (diaphorase [1]) | 1 microM noFAD/FAD (diaphorase [1]) | 10 microM noFAD/FAD (diaphorase [1]) | Meas. ratio (diaphorase [1]) | fluorescence (Diaphorase [2]) | fluorescence (Diaphorase [3]) | noFAD/FAD (Diaphorase [4]) | noFAD/FAD (Diaphorase [5]) | fluorescence (Diaphorase [6]) | fluorescence (Diaphorase [7])
RSHPKHNVGSG [array peptide with C-terminal GSG linker] | 3876 | 1953.667 | 12238.917 | 17018.417 | 0.504 | 1.391 | 0.50 | – | – | – | – | – | –
RPLQVQRGGSG [array peptide with C-terminal GSG linker] | 14421.5 | 5406 | 41059.5 | 53243 | 0.3749 | 1.297 | 0.37 | – | – | – | – | – | –
RLYPQGYGGSG [array peptide with C-terminal GSG linker] | 4541.5 | 11912 | 61747 | 65535 | 2.623 | 1.061 | 2.62 | – | – | – | – | – | –
WLDLGVFPYQHLGSG [array peptide with C-terminal GSG linker] | 3433.25 | 2202 | 33610.5 | 25700.5 | 0.6414 | 0.7647 | 0.64 | – | – | – | – | – | –
VFGVLSQVARDGSG [array peptide with C-terminal GSG linker] | 6638 | 4250.5 | 51495.5 | 26186.5 | 0.6403 | 0.5085 | 0.64 | – | – | – | – | – | –
VLSLNQVYSEGSG [array peptide with C-terminal GSG linker] | 2705.5 | 1674.75 | 21822.25 | 9853.75 | 0.619 | 0.4515 | 0.62 | – | – | – | – | – | –
WRLNPLQFGGSG [array peptide with C-terminal GSG linker] | – | – | – | – | – | – | 2.54 | – | – | – | – | – | –
KEAPGPRFGGSG [array peptide with C-terminal GSG linker] | 8281.5 | 1071.25 | 5467.5 | 5614.5 | 0.1294 | 1.027 | 0.13 | – | – | – | – | – | –
KNRPYNKDLEDGSG [array peptide with C-terminal GSG linker] | 5147 | 733.25 | 2589.25 | 2522.5 | 0.1425 | 0.9742 | 0.14 | – | – | – | – | – | –
YRRPWKFRDGSG [array peptide with C-terminal GSG linker] | – | – | – | – | – | – | 1.74 | – | – | – | – | – | –
LDRLGEYQFSGSG [array peptide with C-terminal GSG linker] | 1164.75 | 709.25 | 7142.5 | 2995.75 | 0.6089 | 0.4194 | 0.61 | – | – | – | – | – | –
KHSFQKELGGSG [array peptide with C-terminal GSG linker] | 727.5 | 2086 | 300.5 | 2387.25 | 2.867 | 0.7943 | 2.87 | – | – | – | – | – | –
YRPYGPVYNGGSG [array peptide with C-terminal GSG linker] | 6762.5 | 18709.5 | 65535 | 65535 | 2.767 | 1 | 2.77 | – | – | – | – | – | –
FLQFLGGSG [array peptide with C-terminal GSG linker] | – | – | – | – | – | – | 0.87 | – | – | – | – | – | –
RNWYGGSG [array peptide with C-terminal GSG linker] | 2940.75 | 7830.5 | 48587 | 65535 | 2.663 | 1.349 | 2.66 | – | – | – | – | – | –
EAVQKLLFSGSG [array peptide with C-terminal GSG linker] | 2420 | 1457.5 | 17702.75 | 5389.5 | 0.6023 | 0.3044 | 0.60 | – | – | – | – | – | –

Molecule | 1 microM FAD (array fluorescence of bound diaphorase) (diaphorase [1]) | 1 micro no FAD (array fluorescence of bound diaphorase) (diaphorase [1]) | 10 microM FAD (array fluorescence of bound diaphorase) (diaphorase [1]) | 10 microM no FAD (array fluorescence of bound diaphorase) (diaphorase [1]) | 1 microM noFAD/FAD (diaphorase [1]) | 10 microM noFAD/FAD (diaphorase [1]) | Meas. ratio (diaphorase [1]) | fluorescence (Diaphorase [2]) | fluorescence (Diaphorase [3]) | noFAD/FAD (Diaphorase [4]) | noFAD/FAD (Diaphorase [5]) | fluorescence (Diaphorase [6]) | fluorescence (Diaphorase [7])
GYHLFEKLYFDGS | – | – | – | – | – | – | 0.70 | – | – | – | – | – | –
DYFEGQLNHLGGS | – | – | – | – | – | – | 0.75 | – | – | – | – | – | –
RYYPAFSGGSG [array peptide with C-terminal GSG linker] | 7535.25 | 21898 | 65535 | 65535 | 2.906 | 1 | 2.91 | – | – | – | – | – | –
AFNVWQYFEGGSG [array peptide with C-terminal GSG linker] | – | – | – | – | – | – | 0.73 | – | – | – | – | – | –
RQAYLFGGSG [array peptide with C-terminal GSG linker] | 4477 | 14479.75 | 64033.5 | 65535 | 3.234 | 1.023 | 3.23 | – | – | – | – | – | –
YRYGWQKYGGSG [array peptide with C-terminal GSG linker] | – | – | – | – | – | – | 2.43 | – | – | – | – | – | –
RLQYLFKSDGSG [array peptide with C-terminal GSG linker] | 1964.75 | 5778.25 | 30591 | 64328.25 | 2.941 | 2.103 | 2.94 | – | – | – | – | – | –
RYAYFQHLGGSG [array peptide with C-terminal GSG linker] | 4971.5 | 13584.75 | 64053.5 | 65535 | 2.733 | 1.023 | 2.73 | – | – | – | – | – | –
QLLQLLFGGSG [array peptide with C-terminal GSG linker] | 6311.5 | 3228.25 | 53382.25 | 19529.5 | 0.5115 | 0.3658 | 0.51 | – | – | – | – | – | –
SGVLQFFGGSG [array peptide with C-terminal GSG linker] | – | – | – | – | – | – | 0.70 | – | – | – | – | – | –
AFYGLELGGSG [array peptide with C-terminal GSG linker] | 4182.5 | 2264.25 | 36729 | 16544 | 0.5414 | 0.4504 | 0.54 | – | – | – | – | – | –
RQYQKHSYAKFSGSG | – | – | – | – | – | – | – | 2460 | 6760 | 2.1 | 2.75 | 27300 | 57200
YRFQSGLPAKDGSG | – | – | – | – | – | – | – | 1490 | 4040 | 2.49 | 2.71 | 20200 | 50300
RWKYQKFNGGSG | – | – | – | – | – | – | – | 3860 | 10200 | 1.33 | 2.63 | 46200 | 61300
WRGFKFADGGSG | – | – | – | – | – | – | – | 2160 | 5650 | 1.87 | 2.62 | 31500 | 58900
RFKYPLDGGSG | – | – | – | – | – | – | – | 2200 | 5760 | 1.84 | 2.62 | 30400 | 55900
